Bounds are passed on as bounds.

This assay concerns the target T1, AAK1 (Homo sapiens, UniProt Q2M2I8).
T1 construct: HA; expressed in transfected cells; host or cells: HEK293F
Description: HEK281 cell-based assay (phospho-mu2 Western blot in transfected HEK293F cells). The conditions noted are these: 3 hours incubation, read-out: CBA IC50. The procedure: HEK293F cells were cultured in media containing DMEM (Gibco, cat. #11965), 10% FBS (SAFC Biosciences, cat. #12103C), 1×GPS (glutamine, penicillin and streptomycin). On day one, cells were plated on a 10 cm dish so that they are ˜80% confluent at time of transfection. Roughly 12 million cells were in a 10 cm dish at time of transfection. On day two, each dish was transfected with 48 ug DNA and 144 ul Lipofectamine 2000 (Invitrogen, cat.#11668-019). The DNA was comprised of a mixture (per 10 cm dish) containing 3 ug AAK1/HA/pIRES (full length human, NCBI accession no. NP_055726.2), 45 μg Flag/AP2MI/pcDNA (full length human), and 1.5 ml OPTI-MEM. The Lipofectamine 2000 is made up of a mixture (per 10 cm dish) containing 144 μl Lipofectamine 2000 and 1.5 ml OPTI-MEM. Each mixture was transferred to individual 15 ml tubes and incubated at RT for 5 minutes, and then the two mixes were combined and incubated at RT for 20 minutes. Growth media was then aspirated from each 10 cm plate and replaced with 10 ml of DMEM+10% FBS (no GPS). Finally, 3 ml DNA/Lipofectamine mix was added to each 10 cm dish and mix gently followed by incubate of plate overnight at 37° C. and 5% CO2.
On day three, compounds were diluted in 100% DMSO at 1000× final concentration, followed by 3-fold serial dilutions for a total of 5 concentrations tested. Four compounds were tested per 10 cm dish. One ul of each compound dilution was then pipetted into a deep-well, 96-well plate, followed by addition of 500 μl DMEM+0.5% FBS into each well for a 2× final concentration of each compound. Cells were resuspended in a 10 cm dish by simple pipetting (HEK293 cells come off the plate that easy at this point) and then transferred to a 50 ml conical tube and pelleted by centrifugation at 1000 rpm for 5 min. Cell pellets were then resuspended in 2.75 ml DMEM+0.5% FBS per 10 cm dish and 100 μl of cell suspension transferred into each well of 96-well TC plate. Finally, 100 μl of 2× compound diluted in DMEM+0.5% FBS was then added into wells containing cell suspension for a 1× final concentration. Plates were then incubated at 37° C. and 5% CO2 for 3 hours followed by transferring of cell suspensions from each well into 12-tube PCR strips. The PCR strips were spun in a tip rack at 1000 rpm for 5 minutes to pellet cells and media was then removed by pipetting without disturbing the cell pellet.
To prepare for Western Blot analysis, cell pellets were resuspend in 40 ul 1×LDS-PAGE sample buffer (Invitrogen, cat.#NP0008)+2× Halt phophatase and protease inhibitor cocktail (Thermo Scientific, cat.#1861284), followed by sonicating each with microtip sonicator set at 5 for 8-10 seconds. Five ul of 10× NuPage Sample Reducing Agent (with 50 mM DTT) was to each sample followed by heat denaturing at 70 C for 10 min on PCR machine. A total of 10 μl per sample was loaded into each lane of a 4-20% Tris-Glycine Criterion 26-well gel (Biorad, cat.#345-0034) for the phospho-mu2 blot and 10 μl per lane in a 4-12% Bis-Tris (+MES buffer) NuPAGE 26-well gel (Invitrogen, cat.#WG1403BX10) for the mu2 blot. For controls, 2 ng of phospho-mu2 or 20 ng mu2/Flag proteins were loaded in the last well of each gel. After SDS-PAGE, samples on each gel were transferred to PVDF membrane using an iBlot and membranes were blocked for one hour in TBST+5% milk, followed by wash 3× for 5-10 min with TBST. Criterion gels were probed with rabbit anti-phospho-mu2 (1:5000; a rabbit polyclonal antibody produced by New England Peptide and affinity purified at Lexicon) in TBST+5% BSA, whereas, NuPAGE gels were probed with mouse anti-Flag (1:500; Sigma, cat.#F1804) in TBST+5% milk, and these primary antibodies were incubated overnight at 4° C. on a rocker.
On the technique in general: Immunoblotting shows a protein as a band on a membrane.

T1 sequence (Q2M2I8 1-863 isoform Q2M2I8-2): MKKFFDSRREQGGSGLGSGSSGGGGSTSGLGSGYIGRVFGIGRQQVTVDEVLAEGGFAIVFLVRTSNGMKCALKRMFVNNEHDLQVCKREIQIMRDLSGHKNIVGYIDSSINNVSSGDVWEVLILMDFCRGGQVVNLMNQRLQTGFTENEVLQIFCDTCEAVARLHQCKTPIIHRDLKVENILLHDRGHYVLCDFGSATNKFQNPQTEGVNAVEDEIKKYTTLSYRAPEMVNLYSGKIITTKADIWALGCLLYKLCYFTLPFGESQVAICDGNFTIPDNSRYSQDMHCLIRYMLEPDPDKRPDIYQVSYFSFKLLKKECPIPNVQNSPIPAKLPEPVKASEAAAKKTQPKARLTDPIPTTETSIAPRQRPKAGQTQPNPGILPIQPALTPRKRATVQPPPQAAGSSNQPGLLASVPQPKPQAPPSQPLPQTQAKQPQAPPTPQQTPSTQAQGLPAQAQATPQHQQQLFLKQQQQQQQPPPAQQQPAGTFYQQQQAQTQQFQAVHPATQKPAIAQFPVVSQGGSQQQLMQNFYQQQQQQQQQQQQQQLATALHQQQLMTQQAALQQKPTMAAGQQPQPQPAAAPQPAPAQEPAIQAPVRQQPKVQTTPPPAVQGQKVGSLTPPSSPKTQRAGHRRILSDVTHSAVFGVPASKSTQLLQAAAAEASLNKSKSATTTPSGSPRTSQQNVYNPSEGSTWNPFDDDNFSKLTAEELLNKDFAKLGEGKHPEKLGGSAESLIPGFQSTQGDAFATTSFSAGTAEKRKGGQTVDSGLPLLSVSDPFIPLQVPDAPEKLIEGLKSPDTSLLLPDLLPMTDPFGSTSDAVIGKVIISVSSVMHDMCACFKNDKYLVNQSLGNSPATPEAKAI

Consider `CC(C)COCCNc1ccc2ncc(-c3ccc(C(=O)NCCN4CCCC4)cc3)n2n1` [4-(6-((2-isobutoxyethyl)amino)imidazo[1,2-b]pyridazin-3-yl)-N-(2-(pyrrolidin-1-yl)ethyl)benzamide], for which the IC50 – broadly, the concentration at which inhibition is half-maximal – was no more than 0.1 µM.

As for `CC(C)OCCNc1ccc2ncc(-c3ccc(C(=O)NCCN4CCCC4)cc3)n2n1` [4-(6-((2-isopropoxyethyl)amino)imidazo[1,2-b]pyridazin-3-yl)-N-(2-(pyrrolidin-1-yl)ethyl)benzamide], the half-inhibitory concentration (IC50) is no more than 0.1 µM.

As for `COc1ccccc1CCNc1ccc2ncc(-c3ccc(C(N)=O)cc3)n2n1` [4-(6-((2-methoxyphenethyl)amino)imidazo[1,2-b]pyridazin-3-yl)benzamide], the IC50 is no more than 0.01 µM.

Take `NC(=O)c1ccc(-c2cnc3ccc(NCCc4cccc(C(F)(F)F)c4)nn23)cc1` [4-(6-((3-(trifluoromethyl)phenethyl)amino)imidazo[1,2-b]pyridazin-3-yl)benzamide]: the half-maximal inhibitory concentration (IC50) is no more than 0.1 µM.

As for `CCCCNc1ccc2ncc(-c3ccc(C(=O)NCCNC)c(F)c3)n2n1` [4-(6-(butylamino)imidazo[1,2-b]pyridazin-3-yl)-2-fluoro-N-(2-(methylamino)ethyl)benzamide], the half-maximal inhibitory concentration (IC50) is no more than 0.1 µM.

On to `CCCCNc1ccc2ncc(-c3ccc(C(=O)NCCN(CC)CC)cc3)n2n1` [4-(6-(butylamino)imidazo[1,2-b]pyridazin-3-yl)-N-(2-(diethylamino)ethyl)benzamide], for which the IC50 was no more than 0.01 µM.

Take `CCCCNc1ccc2ncc(-c3ccc(C(=O)NCCN(C)C)cc3)n2n1` [4-(6-(butylamino)imidazo[1,2-b]pyridazin-3-yl)-N-(2-(dimethylamino)ethyl)benzamide]: the IC50 is no more than 0.1 µM.

For `CCCCNc1ccc2ncc(-c3ccc(C(=O)NCCNC)cc3)n2n1` [4-(6-(butylamino)imidazo[1,2-b]pyridazin-3-yl)-N-(2-(methylamino)ethyl)benzamide], the 50% inhibitory concentration (IC50) is no more than 0.1 µM.

For the compound `CCCCNc1ccc2ncc(-c3ccc(C(=O)NCCN4CCCC4)cc3)n2n1` [4-(6-(butylamino)imidazo[1,2-b]pyridazin-3-yl)-N-(2-(pyrrolidin-1-yl)ethyl)benzamide], the IC50 was no more than 0.1 µM.

Regarding `CCCCNc1ccc2ncc(-c3ccc(C(N)=O)cc3)n2n1` [4-(6-(butylamino)imidazo[1,2-b]pyridazin-3-yl)benzamide], the IC50 is no more than 0.1 µM.

Regarding `CC(C)(O)CCNc1ccc2ncc(-c3ccc(CN)cc3)n2n1` [4-((3-(4-(aminomethyl)phenyl)imidazo[1,2-b]pyridazin-6-yl)amino)-2-methylbutan-2-ol], the half-maximal inhibitory concentration (IC50) is no more than 0.1 µM.

For `CCCCNc1ccc2ncc(-c3ccc(C(N)=O)s3)n2n1` [5-(6-(butylamino)imidazo[1,2-b]pyridazin-3-yl)thiophene-2-carboxamide], the half-inhibitory concentration (IC50) is no more than 1 µM.

Regarding `CCCNc1ccc2ncc(-c3ccc(C=O)s3)n2n1` [5-(6-(propylamino)imidazo[1,2-b]pyridazin-3-yl)thiophene-2-carbaldehyde], the half-inhibitory concentration (IC50) was no more than 1 µM.

Turning to `CCCCNc1ccc2ncc(C(=O)Nc3cn[nH]c3)n2n1` [6-(butylamino)-N-(1H-pyrazol-4-yl)imidazo[1,2-b]pyridazine-3-carboxamide], the IC50 is no more than 1 µM.

`CCOC(=O)N1CCC[C@H]1CNc1ccc2ncc(-c3ccc(C4CCCN4)cc3)n2n1` (stereo partly drawn) [(2S)-ethyl 2-(((3-(4-(pyrrolidin-2-yl)phenyl)imidazo[1,2-b]pyridazin-6-yl)amino)methyl)pyrrolidine-1-carboxylate]: the 50% inhibitory concentration (IC50) was no more than 0.1 µM.

Take `COC(=O)N1CCC[C@H]1CNc1ccc2ncc(-c3ccc(C4CCCN4)cc3)n2n1` (stereo partly drawn) [(2S)-methyl 2-(((3-(4-(pyrrolidin-2-yl)phenyl)imidazo[1,2-b]pyridazin-6-yl)amino)methyl)pyrrolidine-1-carboxylate]: the IC50 is no more than 0.1 µM.

For `CCCCNc1ccc2ncc(-c3ccc(C(=O)N4CCC(N)CC4)cc3)n2n1` [(4-aminopiperidin-1-yl)(4-(6-(butylamino)imidazo[1,2-b]pyridazin-3-yl)phenyl)methanone], the IC50 is no more than 1 µM.

Turning to `CC(C)OC(=O)N(C)CCNc1ccc2ncc(-c3ccc([C@H]4CCCN4)cc3)n2n1` [(R)-isopropyl methyl(2-((3-(4-(pyrrolidin-2-yl)phenyl)imidazo[1,2-b]pyridazin-6-yl)amino)ethyl)carbamate], the IC50 is no more than 0.1 µM.

For `CCCCNc1ccc2ncc(-c3ccc([C@H]4CCCN4)cc3)n2n1` [(R)—N-butyl-3-(4-(pyrrolidin-2-yl)phenyl)imidazo[1,2-b]pyridazin-6-amine], the half-inhibitory concentration (IC50) was no more than 1 µM.

On to `COc1ccccc1-c1cnc2ccc(NC[C@@H]3CCCN3C(=O)CC(C)C)nn12` [(S)-1-(2-(((3-(2-methoxyphenyl)imidazo[1,2-b]pyridazin-6-yl)amino)methyl)pyrrolidin-1-yl)-3-methylbutan-1-one], for which the IC50 is no more than 0.01 µM.

As for `COc1ccccc1-c1cnc2ccc(NC[C@@H]3CCCN3C(C)=O)nn12` [(S)-1-(2-(((3-(2-methoxyphenyl)imidazo[1,2-b]pyridazin-6-yl)amino)methyl)pyrrolidin-1-yl)ethanone], the half-inhibitory concentration (IC50) was no more than 0.1 µM.

`COc1cnccc1-c1cnc2ccc(NC[C@@H]3CCCN3C(=O)CC(C)C)nn12` [(S)-1-(2-(((3-(3-methoxypyridin-4-yl)imidazo[1,2-b]pyridazin-6-yl)amino)methyl)pyrrolidin-1-yl)-3-methylbutan-1-one]: the IC50 was no more than 0.01 µM.

On to `COc1cnccc1-c1cnc2ccc(NC[C@@H]3CCCN3C(C)=O)nn12` [(S)-1-(2-(((3-(3-methoxypyridin-4-yl)imidazo[1,2-b]pyridazin-6-yl)amino)methyl)pyrrolidin-1-yl)ethanone], for which the IC50 is no more than 0.1 µM.

Turning to `CC(C)CC(=O)N1CCC[C@H]1CNc1ccc2ncc(-c3ccc(CN)cc3)n2n1` [(S)-1-(2-(((3-(4-(aminomethyl)phenyl)imidazo[1,2-b]pyridazin-6-yl)amino)methyl)pyrrolidin-1-yl)-3-methylbutan-1-one], the IC50 was no more than 0.01 µM.

As to `CC(C)CC(=O)N1CCC[C@H]1CNc1ccc2ncc(Br)n2n1` [(S)-1-(2-(((3-bromoimidazo[1,2-b]pyridazin-6-yl)amino)methyl)pyrrolidin-1-yl)-3-methylbutan-1-one], the half-maximal inhibitory concentration (IC50) was no more than 0.1 µM.

Take `CCCCNc1ccc2ncc(-c3ccc(CNC(=O)[C@@H](N)CC(C)C)cc3)n2n1` [(S)-2-amino-N-(4-(6-(butylamino)imidazo[1,2-b]pyridazin-3-yl)benzyl)-4-methylpentanamide]: the IC50 is no more than 0.1 µM.

As to `NCc1ccc(-c2cnc3ccc(NC[C@@H]4CCCO4)nn23)cc1` [(S)-3-(4-(aminomethyl)phenyl)-N-((tetrahydrofuran-2-yl)methyl)imidazo[1,2-b]pyridazin-6-amine], the IC50 was no more than 0.1 µM.

`CC(C)CC(=O)N1CCC[C@H]1CNc1ccc2ncc(-c3ccncc3)n2n1` [(S)-3-methyl-1-(2-(((3-(pyridin-4-yl)imidazo[1,2-b]pyridazin-6-yl)amino)methyl)pyrrolidin-1-yl)butan-1-one]: the half-inhibitory concentration (IC50) is no more than 0.1 µM.

With `CCCCNc1ccc2ncc(-c3ccc([C@@H]4CCCN4)cc3)n2n1` [(S)-N-butyl-3-(4-(pyrrolidin-2-yl)phenyl)imidazo[1,2-b]pyridazin-6-amine], the half-inhibitory concentration (IC50) was no more than 0.1 µM.

Consider `CCOC(=O)N1CCC[C@H]1CNc1ccc2ncc(-c3ccccc3OC)n2n1` [(S)-ethyl 2-(((3-(2-methoxyphenyl)imidazo[1,2-b]pyridazin-6-yl)amino)methyl)pyrrolidine-1-carboxylate], for which the IC50 is no more than 0.1 µM.

The record behind these values is US8969565B2, “Imidazo[1,2-b]pyridazine-based compounds, compositions comprising them, and methods of their use” (Lexicon Pharmaceuticals, Inc., priority 2012, dated 2015).
